# Assay results as given in PMC6006164, “Natural cyclopeptide RA-V inhibits the NF-κB signaling pathway by targeting TAK1” (Cell Death & Disease, 2018).
# Tests used:
# [1] = tested on: NF-κB target genes, IL-8, MCP-1, and E-selectin; experiment: Quantitative RT-PCR of TNF-α-induced NF-κB target genes; format: cell-based, Homo sapiens; settings: HEK293T or HeLa; RA-V 24 h, 10 ng/mL TNF-α 2 h; normalized to GADPH
# Method: Fig. 1 RA-V inhibits TNF-α- and LPS-induced activation of NF-κB. a Chemical structure of RA-V. b RA-V inhibited the NF-κB signaling pathway in a dose-dependent manner. HEK293T or HeLa cells were transfected with the 5 × κB-luciferase and pTK-Renilla reporters. Twenty-four hours after transfection, the cells were incubated with various concentrations of RA-V for 6 h, and then treated with 10 ng/mL TNF-α for 2 h before the luciferase activity assay and MTT assay. c RA-V reduced TNF-α-induced expression of NF-κB target genes. HEK293T or HeLa cells were treated with various concentrations of RA-V for 24 h and stimulated with 10 ng/mL TNF-α for 2 h. The expression of the NF-κB target genes, IL-8, MCP-1, and E-selectin was measured by quantitative RT-PCR and normalized to GADPH expression. d RA-V inhibited TNF-α-induced p65 phosphorylation, IκBα phosphorylation and IκBα degradation. […] The expression of IL-6 was measured. h RA-V inhibited LPS-induced p65 phosphorylation, IκBα phosphorylation. […] The protein expression was measured. i RA-V inhibited LPS-induced IL-6 production. […] The expression of IL-6 was measured.
# The total RNA was extracted from the indicated cells using TRIzol reagent (Invitrogen) according to the manufacturer’s instructions and then was reverse transcribed. The RNA concentrations were measured spectrophotometrically with a BioPhotometer (Eppendorf). […]
# [2] = tested on: p65 nuclear translocation; experiment: Immunofluorescence assay of p65 nuclear translocation; format: cell-based; settings: HeLa; 200 nM RA-V 6 h, 10 ng/mL TNF-α 15 min
# [3] = tested on: TAK1, JNK, ERK, p38, and IKKα/β phosphorylation; experiment: Western blot of TAK1 and downstream kinase phosphorylation; format: cell-based; settings: HeLa; RA-V 12 h, 10 ng/mL TNF-α 10 min
# Method: HEK293T cells were transfected with TAK1-N or TAK1-C for 24 h. The cells lysates were incubated with CB12 or biotin and precipitated with streptavidin-coated sepharose and were analyzed by immunoblotting with Flag antibody. b The model for RA-V binding to the crystal structure of the TAK1–TAB1 fusion protein (PDB 4GS6). The blue dotted lines represent the hydrogen bonds between RA-V (green) and TAK1–TAB1. c RA-V probably binds the ATP-binding pocket of TAK1. HEK293T cells were transfected with TAK1 for 24 h, and then the cell lysates were incubated with biotin or CB12 before precipitation with streptavidin agarose. The immunoprecipitates were treated with ATP or (5Z)-7-oxozeaenol and western blotted with Flag antibody. d RA-V inhibits TAK1, JNK, ERK, p38, and IKKα/β phosphorylation. HeLa cells were incubated with various concentrations of RA-V for 12 h and then treated with 10 ng/mL TNF-α for 10 min. The cell lysates were prepared and western blotted with the indicated antibodies. Each experiment was repeated at least three times
# For western blot analysis, the samples were equally subjected to sodium dodecyl sulfate polyacrylamide gel electrophoresis (SDS-PAGE) and transferred to polyvinylidene difluoride membranes (Millipore). […] The protein bands were detected with the SuperSignal West Pico Chemiluminescent Substrate (Pierce).
# [4] = tested on: p65 phosphorylation, IκBα phosphorylation and IκBα degradation; experiment: Western blot of TNF-α-induced NF-κB-associated proteins; format: cell-based; settings: HEK293T or HeLa; RA-V 24 h, 10 ng/mL TNF-α 10 min
# Method: Fig. 1 RA-V inhibits TNF-α- and LPS-induced activation of NF-κB. a Chemical structure of RA-V. b RA-V inhibited the NF-κB signaling pathway in a dose-dependent manner. HEK293T or HeLa cells were transfected with the 5 × κB-luciferase and pTK-Renilla reporters. Twenty-four hours after transfection, the cells were incubated with various concentrations of RA-V for 6 h, and then treated with 10 ng/mL TNF-α for 2 h before the luciferase activity assay and MTT assay. c RA-V reduced TNF-α-induced expression of NF-κB target genes. HEK293T or HeLa cells were treated with various concentrations of RA-V for 24 h and stimulated with 10 ng/mL TNF-α for 2 h. The expression of the NF-κB target genes, IL-8, MCP-1, and E-selectin was measured by quantitative RT-PCR and normalized to GADPH expression. d RA-V inhibited TNF-α-induced p65 phosphorylation, IκBα phosphorylation and IκBα degradation. HEK293T or HeLa cells were incubated with various concentrations of RA-V for 24 h and treated with 10 ng/mL TNF-α for 10 min. The cell lysates were prepared and subjected to western blot analysis with the indicated antibodies. e RA-V inhibited TNF-α-induced IL-8 production. […] The expression of IL-6 was measured. h RA-V inhibited LPS-induced p65 phosphorylation, IκBα phosphorylation. […] The protein expression was measured. i RA-V inhibited LPS-induced IL-6 production. […] The expression of IL-6 was measured. […]
# IL-8 production = experiment: TNF-α-induced IL-8 production, ELISA; format: cell-based; settings: HeLa; RA-V 12 h, 10 ng/mL TNF-α 2 h; ELISA of supernatant; dose-dependent
# Method: Fig. 1 RA-V inhibits TNF-α- and LPS-induced activation of NF-κB. a Chemical structure of RA-V. b RA-V inhibited the NF-κB signaling pathway in a dose-dependent manner. HEK293T or HeLa cells were transfected with the 5 × κB-luciferase and pTK-Renilla reporters. Twenty-four hours after transfection, the cells were incubated with various concentrations of RA-V for 6 h, and then treated with 10 ng/mL TNF-α for 2 h before the luciferase activity assay and MTT assay. c RA-V reduced TNF-α-induced expression of NF-κB target genes. HEK293T or HeLa cells were treated with various concentrations of RA-V for 24 h and stimulated with 10 ng/mL TNF-α for 2 h. The expression of the NF-κB target genes, IL-8, MCP-1, and E-selectin was measured by quantitative RT-PCR and normalized to GADPH expression. d RA-V inhibited TNF-α-induced p65 phosphorylation, IκBα phosphorylation and IκBα degradation. HEK293T or HeLa cells were incubated with various concentrations of RA-V for 24 h and treated with 10 ng/mL TNF-α for 10 min. The cell lysates were prepared and subjected to western blot analysis with the indicated antibodies. e RA-V inhibited TNF-α-induced IL-8 production. […] The expression of IL-6 was measured. h RA-V inhibited LPS-induced p65 phosphorylation, IκBα phosphorylation. […] The protein expression was measured. i RA-V inhibited LPS-induced IL-6 production. […] The expression of IL-6 was measured.
substance,measurement,setting,value
RA-V,"TNF-α-induced expression of IL-8, MCP-1, and E-selectin",[1],dose-dependently decreased
same,TNF-α-induced p65 nuclear translocation,[2],significantly blocked
same,"phosphorylation of TAK1 and of IKKα/β, JNK, ERK, and p38",[3],inhibited
same,"TNF-α-induced IκBα phosphorylation, IκBα degradation, and p65 phosphorylation",[4],dose-dependent inhibitory effects
same,TNF-α-induced production of IL-8,IL-8 production,inhibited
